One experiment has as its target T1, ULK2 kinase (Homo sapiens, UniProt Q8IYT8).
T1 construct: (residues 1-306 with N-terminal GST and His tag; ID NO: 2); purchased Signal Chem U02-11G
The experiment in a line: Biochemical assay for ULK2 (coupled pyruvate kinase/lactate dehydrogenase assay). Conditions: 1 mM ATP, 1 nM ULK2; read-out: ULK2 (inhibition of biochemical activity), IC50. The essentials: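 Continuous PK/LDH-coupled NADH oxidation assay (A340) with 1 nM ULK2, 200 μM ULKtide and 1 mM ATP in Tris pH 7.5, 15 mM MgCl2, 1% DMSO, read 6 h at 30° C. Rates from the 2-3 h window converted to percent inhibition against no-compound and known-inhibitor controls; IC50 by four-parameter sigmoidal fit.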

A further experiment deals with T2, ULK1 kinase (Homo sapiens, UniProt O75385, E37A/K38A).
T2 construct: (residues 1-283; ID NO: 1); purchased Beryllium
T2 sequence (O75385 1-283 E37A/K38A): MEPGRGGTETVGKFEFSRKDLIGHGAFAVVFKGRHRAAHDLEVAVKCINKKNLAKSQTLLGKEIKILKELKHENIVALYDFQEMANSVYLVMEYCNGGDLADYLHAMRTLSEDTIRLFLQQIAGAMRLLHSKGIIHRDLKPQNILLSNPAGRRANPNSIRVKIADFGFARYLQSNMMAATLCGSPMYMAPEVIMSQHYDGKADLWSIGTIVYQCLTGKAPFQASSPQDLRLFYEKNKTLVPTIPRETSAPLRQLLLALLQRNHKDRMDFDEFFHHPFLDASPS
Put plainly: Biochemical assay for ULK1 (coupled pyruvate kinase/lactate dehydrogenase assay). The following applies: 1 mM ATP, 0.1 nM ULK1; read-out: ULK1 (inhibition of biochemical activity), IC50. The essentials: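 IC50 values were fitted to percent inhibition, normalised with no-compound and known-inhibitor controls, using rates from 2–3 h of a 6 h read at 30 °C. ADP was coupled through pyruvate kinase/lactate dehydrogenase to NADH loss at 340 nm.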

Experiment [1] concerns ULK kinase substrate ATG13 (pS318-ATG13) in A549 (KRAS mutant) cells. The experiment in a line: pATG13 levels of mutant KRas A549 cells after treatment with ULK inhibitors in combination with trametinib (ELISA). The format is cell-based, human. The essentials: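 A549 cells grown overnight were treated with a test-compound dose response plus trametinib at 250 nM final (or DMSO) overnight at 37° C. Lysates were assayed by total-ATG13 capture and biotinylated pS318-ATG13 detection ELISA (450 nm minus 540 nm background); % phosphorylation versus controls gave IC50 values.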

T1 sequence (Q8IYT8 with tags, fused parts or gaps): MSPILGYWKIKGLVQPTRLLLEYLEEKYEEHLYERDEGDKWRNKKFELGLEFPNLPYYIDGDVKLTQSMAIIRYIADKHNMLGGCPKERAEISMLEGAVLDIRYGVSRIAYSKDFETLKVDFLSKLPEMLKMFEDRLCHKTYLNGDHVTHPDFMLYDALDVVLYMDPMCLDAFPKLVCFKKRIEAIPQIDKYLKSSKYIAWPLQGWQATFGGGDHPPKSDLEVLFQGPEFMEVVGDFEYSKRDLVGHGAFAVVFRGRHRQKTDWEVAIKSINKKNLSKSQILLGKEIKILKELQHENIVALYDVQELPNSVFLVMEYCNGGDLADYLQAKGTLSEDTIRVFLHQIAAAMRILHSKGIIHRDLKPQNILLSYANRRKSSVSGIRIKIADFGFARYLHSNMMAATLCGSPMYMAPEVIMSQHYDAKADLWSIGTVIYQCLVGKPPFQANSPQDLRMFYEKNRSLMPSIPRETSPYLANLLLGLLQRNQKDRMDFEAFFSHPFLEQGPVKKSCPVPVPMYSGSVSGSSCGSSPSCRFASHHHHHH

In the case of `CC/C(Nc1cnn(C2CCN(C(C)C)CC2)c1)=C1/C(=O)Nc2ccc(C(=O)NC[C@H]3CCCO3)cc21` [Example 1, (R,Z)-3-(1-((1-(1-isopropylpiperidin-4-yl)-1H-pyrazol-4-yl)amino)propylidene)-2-oxo-N-((tetrahydrofuran-2-yl)methyl)indoline-5-carboxamide], the figures for the IC50 (on ULK2 kinase; on ULK1 kinase; in experiment [1]) were 0.01 to 0.1 µM, at most 0.01 µM and 0.1 to 0.3 µM, respectively.

Consider `CC/C(Nc1ccc(N2C[C@H]3CN(C)C[C@H]3C2)cc1)=C1/C(=O)Nc2ccc(C(=O)NCC(C)C)cc21` [Example 63], for which the IC50 at ULK2 kinase is 0.01 to 0.1 µM; at ULK1 kinase, 0.01 to 0.1 µM; in experiment [1], at most 0.1 µM.

Regarding `CC/C(Nc1ccc(N2C[C@H]3CN(C)C[C@H]3C2)cc1)=C1/C(=O)Nc2ccc(C(=O)NC[C@H]3CCCO3)cc21` [Example 64], the IC50 on ULK2 kinase is 0.01 to 0.1 µM; at ULK1 kinase, 0.01 to 0.1 µM; in experiment [1], at most 0.1 µM.

Take `CC/C(Nc1ccc(N2CC3(CN(C)C3)C2)cc1)=C1/C(=O)Nc2ccc(C(=O)NCC(C)C)cc21` [Example 65]: the results for the IC50 (at ULK2 kinase; on ULK1 kinase; in experiment [1]) were 0.01 to 0.1 µM, at most 0.01 µM and at most 0.1 µM, respectively.

Consider `CC/C(Nc1ccc(N2CC3(CN(C)C3)C2)cc1)=C1/C(=O)Nc2ccc(C(=O)NC[C@H]3CCCO3)cc21` [Example 66], for which the IC50 at ULK2 kinase is 0.01 to 0.1 µM; at ULK1 kinase, at most 0.01 µM; in experiment [1], at most 0.1 µM.

Regarding `CC/C(Nc1ccc(N2CC3CC(C2)N3C)cc1)=C1/C(=O)Nc2ccc(C(=O)NCC(C)C)cc21` [Example 67], the IC50 on ULK2 kinase is 0.01 to 0.1 µM; on ULK1 kinase, at most 0.01 µM; in experiment [1], at most 0.1 µM.

Consider `CC/C(Nc1ccc(N2CC3CC(C2)N3C)cc1)=C1/C(=O)Nc2ccc(C(=O)NC[C@H]3CCCO3)cc21` [Example 68], for which the IC50 is 0.01 to 0.1 µM at ULK2 kinase, at most 0.01 µM at ULK1 kinase and at most 0.1 µM in experiment [1].

Turning to `CC/C(Nc1ccc(N2CC3CC2CN3C)cc1)=C1/C(=O)Nc2ccc(C(=O)NCC(C)C)cc21` (stereo not drawn) [Example 69], the IC50 was 0.01 to 0.1 µM on ULK2 kinase, at most 0.01 µM on ULK1 kinase and at most 0.1 µM in experiment [1].

In the case of `CC/C(Nc1ccc(N2CC3CC2CN3C)cc1)=C1/C(=O)Nc2ccc(C(=O)NC[C@H]3CCCO3)cc21` (stereo partly drawn) [Example 70], the IC50 is 0.01 to 0.1 µM at ULK2 kinase, at most 0.01 µM on ULK1 kinase and at most 0.1 µM in experiment [1].

With `CC/C(Nc1ccc(N2CC3CC2CN3C)cc1)=C1/C(=O)Nc2ccc(C(=O)NCC(F)(F)F)cc21` (stereo not drawn) [Example 71], the IC50 on ULK2 kinase is 0.01 to 0.1 µM; on ULK1 kinase, at most 0.01 µM; in experiment [1] it was at most 0.1 µM.

For the compound `CC/C(Nc1ccc(N2CCN(C)CC2)nc1)=C1/C(=O)Nc2ccc(C(=O)NCC(F)(F)F)cc21` [Example 74], the figures for the IC50 (at ULK2 kinase; at ULK1 kinase; in experiment [1]) were 0.1 to 0.5 µM, 0.01 to 0.1 µM and 0.1 to 0.3 µM, respectively.

Take `CC/C(Nc1ccc(N2CCN(C)CC2)cn1)=C1/C(=O)Nc2ccc(C(=O)NCC(F)(F)F)cc21` [Example 75]: the IC50 at ULK2 kinase was at most 0.01 µM; on ULK1 kinase, at most 0.01 µM; in experiment [1], 0.1 to 0.3 µM.

Turning to `CC/C(Nc1cnn(C)c1)=C1/C(=O)Nc2ccc(C(=O)NCC(F)(F)F)cc21` [Example 77], the IC50 on ULK2 kinase is 0.01 to 0.1 µM; on ULK1 kinase, at most 0.01 µM; in experiment [1], 0.1 to 0.3 µM.

With `CC/C(Nc1ccc(-c2nc(C)no2)cc1)=C1/C(=O)Nc2ccc(C(=O)NCC(F)(F)F)cc21` [Example 78], the IC50 at ULK2 kinase is 0.01 to 0.1 µM; at ULK1 kinase, 0.01 to 0.1 µM; in experiment [1], 0.3 to 0.6 µM.

Regarding `CC/C(Nc1ccc(-c2cn(C)nn2)cc1)=C1/C(=O)Nc2ccc(C(=O)NCC(F)(F)F)cc21` [Example 79], the IC50 lay in the range of 0.01 to 0.1 µM on ULK2 kinase, 0.01 to 0.1 µM at ULK1 kinase and 0.3 to 0.6 µM in experiment [1].

With `CC/C(Nc1cnn(C2CCN(C(C)C)CC2)c1)=C1/C(=O)Nc2ccc(C(=O)NC[C@H]3CC(F)(F)CO3)cc21` [Example 80], the IC50 on ULK2 kinase was at most 0.01 µM; at ULK1 kinase, at most 0.01 µM; in experiment [1], at most 0.1 µM.

Regarding `CC/C(Nc1cnn(C2CCN(C(C)C)CC2)c1)=C1/C(=O)Nc2ccc(C(=O)NCCOC(F)(F)F)cc21` [Example 82], the results for the IC50 (at ULK2 kinase; at ULK1 kinase; in experiment [1]) were at most 0.01 µM, at most 0.01 µM and 0.3 to 0.6 µM, respectively.

In the case of `CC/C(Nc1cnn(C2CCN(C(C)C)CC2)c1)=C1/C(=O)Nc2ccc(C(=O)NC[C@H]3CCCCO3)cc21` [Example 83], the figures for the IC50 (at ULK2 kinase; at ULK1 kinase; in experiment [1]) were 0.01 to 0.1 µM, at most 0.01 µM and at most 0.1 µM, respectively.

Regarding `CC/C(Nc1cnn(C2CC3(C2)CN(C)C3)c1)=C1/C(=O)Nc2ccc(C(=O)NCC(F)(F)F)cc21` [Example 84], the IC50 on ULK2 kinase is at most 0.01 µM; at ULK1 kinase, at most 0.01 µM; in experiment [1], above 0.6 µM.

With `CC/C(Nc1ccc(N2CC3(COC3)C2)cc1)=C1/C(=O)Nc2ccc(C(=O)NCC(F)(F)F)cc21` [Example 85], the IC50 lay within 0.01 to 0.1 µM on ULK2 kinase, 0.01 to 0.1 µM at ULK1 kinase and 0.3 to 0.6 µM in experiment [1].

With `CC/C(Nc1cnn(C2CN(C)C2)c1)=C1/C(=O)Nc2ccc(C(=O)NCC(F)(F)F)cc21` [Example 86], the values for the IC50 (at ULK2 kinase; on ULK1 kinase; in experiment [1]) were 0.01 to 0.1 µM, at most 0.01 µM and 0.3 to 0.6 µM, respectively.

With `CC/C(Nc1cnn(C2CN(C)C2)c1)=C1/C(=O)Nc2ccc(C(=O)NCC(C)C)cc21` [Example 87], the figures for the IC50 (on ULK2 kinase; on ULK1 kinase; in experiment [1]) were 0.01 to 0.1 µM, 0.01 to 0.1 µM and 0.3 to 0.6 µM, respectively.

For `CC/C(Nc1cnn(C2CN(C3CCC3)C2)c1)=C1/C(=O)Nc2ccc(C(=O)NC[C@H]3CCCO3)cc21` [Example 88], the IC50 was 0.01 to 0.1 µM at ULK2 kinase, at most 0.01 µM at ULK1 kinase and 0.1 to 0.3 µM in experiment [1].

Turning to `CC/C(Nc1cnn(C2CN(C)C2)c1)=C1/C(=O)Nc2ccc(C(=O)NCCOC)cc21` [Example 89], the IC50 on ULK2 kinase was 0.1 to 0.5 µM; on ULK1 kinase it was 0.01 to 0.1 µM; in experiment [1] it was above 0.6 µM.

Consider `CC/C(Nc1cnn(C2CN(CC)C2)c1)=C1/C(=O)Nc2ccc(C(=O)NC[C@H]3CCCO3)cc21` [Example 90], for which the IC50 was 0.01 to 0.1 µM on ULK2 kinase, at most 0.01 µM at ULK1 kinase and 0.3 to 0.6 µM in experiment [1].

As to `CC/C(Nc1cnn(C2CN(C(C)C)C2)c1)=C1/C(=O)Nc2ccc(C(=O)NC[C@H]3CCCO3)cc21` [Example 91], the IC50 at ULK2 kinase is 0.01 to 0.1 µM; at ULK1 kinase, at most 0.01 µM; in experiment [1] it was 0.1 to 0.3 µM.

For the compound `CC/C(Nc1ccc(N2CCN(C(C)C)CC2)cn1)=C1/C(=O)Nc2cc(F)c(C(=O)NCC(F)(F)F)cc21` [Example 92], the IC50 on ULK2 kinase is 0.1 to 0.5 µM; at ULK1 kinase it was 0.1 to 0.5 µM; in experiment [1] it was at most 0.1 µM.

These data come from patent US20240150368A1, “ULK INHIBITORS AND METHODS OF USE THEREOF” (Deciphera Pharmaceuticals, LLC, priority 2022, published 2024).
